{
  "source": "patent EP4342467A1",
  "about": "“KU INHIBITORS FOR USE IN TUMOR THERAPY” (Masarykova Univerzita, priority 2022, dated 2024)",
  "key": {"HCT116 cells [1]": {"tested_on": "HCT116 cells", "experiment": "cell proliferation, ATPlite assay", "type": "cell-based", "conditions": "Homo sapiens, HCT-116, 120 h, read-out: Inhibition of cell proliferation IC50", "experimental": "HCT116, U2OS and HeLa cells were grown in McCoy's 5a medium supplemented with 10% Fetal Bovine Serum, 2 mM L-Glutamine and Penicilin/Streptomycin 200 U/l each in the presence of Compound 1-9. After growth at 37 °C, 5% CO2 for 3 days, monolayer of cells was detached using TrypLE Express (Gibco), cells were counted using 0.4% trypan blue stain and hemocytometer. […] Number of viable cells was estimated using ATPlite kit (Perkin Elmer)."}, "HCT116 cells [2]": {"tested_on": "HCT116 cells", "experiment": "C-circle assay (extrachromosomal circular telomeric DNA)", "type": "cell-based, human", "conditions": "C-circle assay in HCT116 cells treated for 3 to 7 days", "experimental": "HCT116 cell were incubated for 3, 5 or 7 days in McCoy's 5a medium with 10% Fetal Bovine Serum, 2 mM L-Glutamine and Penicilin/Streptomycin 200 U/l each and supplemented with Compound 1-9. C-circle assay that utilizes rolling circle amplification of circular DNA by φ29 polymerase was performed as described in Henson, J.D., Lau, L.M., Koch, S., Martin La Rotta, N., Dagg, R.A., and Reddel, R.R. (2017). The C-Circle Assay for alternative-lengthening-of-telomeres activity. Methods 114, 74-84. Amplified circular telomeric DNA was detected by dot blot hybridization with P^32-labeled telomeric DNA oligonucleotide (5'-[…]-3' (SEQ ID NO: 6)) (Figure 4)."}, "HCT116": {"tested_on": "HCT116", "experiment": "combination with BIBR1532, relative growth by ATPlite", "type": "cell-based, human", "experimental": "10,000 HCT116 cells were seeded in 100 µl of McCoy's 5a medium supplemented with 10% Fetal Bovine Serum, 2 mM L-Glutamine and Penicilin/Streptomycin 200 U/l for 1 day in 96well plate and treated with 10 µM BIBR1532, 0.25 µM of iKU-1 or their combination for 4 days. Number of viable cells was measured by ATPlite kit (Perkin Elmer) and normalized to the treatment with 0.5% DMSO. The results presented in Table 2 show a synergistic effect of iKU-1 and BIBR1532 on the growth of HCT116 tumor cell line. Values in the table indicate relative growth assessed by ATPlite kit compared to the control sample treated with 0.5% DMSO after 4 days of treatment."}, "Ku complex": {"biological_target": "Ku complex (Homo sapiens, UniProt P12956+P13010)", "sequence (P12956 whole entry)": "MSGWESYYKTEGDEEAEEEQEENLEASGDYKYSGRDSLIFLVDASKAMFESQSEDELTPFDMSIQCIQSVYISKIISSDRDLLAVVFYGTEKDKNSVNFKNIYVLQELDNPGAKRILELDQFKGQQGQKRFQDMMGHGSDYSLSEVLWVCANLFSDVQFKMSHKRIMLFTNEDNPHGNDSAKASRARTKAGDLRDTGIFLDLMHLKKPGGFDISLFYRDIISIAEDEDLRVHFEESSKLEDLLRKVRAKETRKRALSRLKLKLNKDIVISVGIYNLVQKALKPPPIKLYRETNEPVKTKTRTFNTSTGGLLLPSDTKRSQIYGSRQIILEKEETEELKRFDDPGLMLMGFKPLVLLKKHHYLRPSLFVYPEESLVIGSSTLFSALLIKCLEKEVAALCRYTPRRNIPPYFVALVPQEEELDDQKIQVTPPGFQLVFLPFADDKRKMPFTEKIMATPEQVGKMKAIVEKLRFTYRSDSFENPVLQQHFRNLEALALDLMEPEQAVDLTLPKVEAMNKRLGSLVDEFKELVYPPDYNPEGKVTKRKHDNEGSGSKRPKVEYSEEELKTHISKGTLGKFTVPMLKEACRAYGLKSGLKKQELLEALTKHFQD", "sequence (P13010 whole entry)": "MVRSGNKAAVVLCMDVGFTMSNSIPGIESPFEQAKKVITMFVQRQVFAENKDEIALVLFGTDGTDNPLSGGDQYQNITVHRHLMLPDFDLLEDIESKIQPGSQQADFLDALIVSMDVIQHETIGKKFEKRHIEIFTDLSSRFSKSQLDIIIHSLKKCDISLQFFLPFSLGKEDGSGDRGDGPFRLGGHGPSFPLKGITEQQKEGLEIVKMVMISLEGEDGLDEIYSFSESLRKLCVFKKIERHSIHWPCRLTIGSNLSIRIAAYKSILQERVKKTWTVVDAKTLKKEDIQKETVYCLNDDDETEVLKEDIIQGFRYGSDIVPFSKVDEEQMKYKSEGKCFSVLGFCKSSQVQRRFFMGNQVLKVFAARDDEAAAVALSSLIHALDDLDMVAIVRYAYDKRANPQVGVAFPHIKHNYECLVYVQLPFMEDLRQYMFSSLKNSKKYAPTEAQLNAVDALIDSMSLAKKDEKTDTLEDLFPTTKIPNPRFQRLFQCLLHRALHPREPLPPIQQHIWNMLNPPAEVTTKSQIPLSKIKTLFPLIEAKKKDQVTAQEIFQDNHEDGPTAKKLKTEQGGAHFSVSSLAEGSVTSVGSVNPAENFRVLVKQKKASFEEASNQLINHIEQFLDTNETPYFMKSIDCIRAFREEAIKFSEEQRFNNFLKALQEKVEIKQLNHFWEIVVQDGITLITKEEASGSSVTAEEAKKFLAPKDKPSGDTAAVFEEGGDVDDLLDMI", "experiment": "microwell protein induced fluorescent enhancement assay (mwPIFE) of Ku-DNA binding", "experimental": "A rapid method for detecting protein-nucleic acid interactions by protein induced fluorescence enhancement. Sci Rep 6, 39653. mwPIFE is based on enhanced fluorescence of cyanine fluorophores attached to nucleic acid probes upon protein binding. […] The probe was immobilized in 96 well plates through biotin (Btn) attached to one end of DNA and incubated with purified Ku complex (0.5 pmol) in 50 µl of binding buffer (10 mM calcium acetate, 60 mM potassium acetate, 20 mM TRISacetate pH 7.9, 100 mg BSA/1). Ku-DNA binding was calculated from altered fluorescence measured by a fluorescence plate reader (Valuchova et al., 2016). […]"}, "HeLa": {"tested_on": "HeLa", "experiment": "combination with BIBR1532, relative growth by ATPlite", "type": "cell-based, human", "conditions": "10 µM BIBR1532, 0.25 µM iKU-1 or their combination, 4 days"}, "HCT116 cells [3]": {"tested_on": "HCT116 cells", "experiment": "flow cytometry analysis of DNA content (cell cycle)", "type": "cell-based, human", "conditions": "HCT116 incubated for two days", "experimental": "HCT116 cells were incubated for two days in McCoy's 5a medium supplemented with 10% Fetal Bovine Serum, 2 mM L-Glutamine and Penicilin/Streptomycin 200 U/l each in the presence of iKU-1, harvested and fixed in cold 70% ethanol. Cells were recovered in PBS solution and resuspended in 200 µl of Vindel solution containing propidium iodide and RNAse A, and nuclear DNA content was measured by flow cytometry (Beckton Dickinson FACS Verse). Accumulation of cells in S-phase is apparent already after two days of the iKU-1 treatment."}, "SKOV3": {"tested_on": "SKOV3", "experiment": "growth of SKOV3 cells by ATPlite", "type": "cell-based", "conditions": "7 days", "experimental": "2,000 SKOV3 and A2780 cells were seeded in 100 µl of McCoy's 5a or RPMI 1640 media, respectively, for one day and then incubated with iKU-1 for 7 days. Number of viable cells was measured by ATPlite kit (Perkin Elmer) and normalized to the treatment with 0.5% DMSO."}, "DNA-PKcs": {"tested_on": "DNA-PKcs", "experiment": "DNA-PKcs autophosphorylation (S2056) after bleomycin, Western blotting in HCT116 cells", "type": "cell-based, human", "conditions": "HCT116, pre-incubated 1 hr", "experimental": "iKU-1 blocks activation of DNA-PKcs upon induction of DNA damage in vivo (Figure 2). HCT116 cells were pre-incubated with iKU-1 for 1 hr in McCoy's 5a medium supplemented with 10% Fetal Bovine Serum, 2 mM L-Glutamine, Penicilin/Streptomycin 200 U/l each. DNA breaks were induced by addition of bleomycin and incubated for additional 4 hrs. DNA damage triggers DNA-PKcs activity that leads to its autophosphorylation at the residue 2056. The phosphorylated DNA-PKcs was detected by Western blotting using anti-pDNA PKcs (phospho S2056) antibody [EPR5670] (Abcam, ab124918) and the total amount of DNA-PKcs with the anti-DNA PKcs antibody (BioRad, AHP318), both in 1:10000 dilution in TBS-T buffer overnight at 4°C. The primary antibody was detected by immunostaining with IRDye 800CW-conjugated Goat anti-Rabbit IgG secondary antibody (dilution 1:20000 in TBS-T). The signal was imaged using Odyssey Imager (Li-Cor). […] The total level of DNA-PKcs was not altered by the treatment."}, "U2OS": {"tested_on": "U2OS", "experiment": "combination with BIBR1532, relative growth by ATPlite", "type": "cell-based, human", "conditions": "10 µM BIBR1532, 0.25 µM iKU-1 or their combination, 4 days"}},
  "data": [
    {"smiles": "O=C(Nc1nc(-c2ccccn2)cs1)c1cncc(Br)c1", "note": "[Compound 1]", "values": [
      {"measurement": "IC50", "setting": "HCT116 cells [1]", "result": 500, "unit": "nM"},
      {"measurement": "Concentration inducing c-circle formation", "setting": "HCT116 cells [2]", "result": 1, "unit": "µM"},
      {"measurement": "interaction with BIBR1532 on growth", "setting": "HCT116; HCT116, 10 µM BIBR1532 with 0.25 µM iKU-1, 4 days", "result": "synergism"},
      {"measurement": "relative growth assessed by ATPlite kit compared to the control sample treated with 0.5% DMSO", "setting": "HCT116; HCT116, 10 µM BIBR1532, 0.25 µM iKU-1 or their combination, 4 days", "result": 1.17},
      {"measurement": "IC50", "setting": "Ku complex; mwPIFE, estimated from the 0.5 to 8 µM concentration range, read-out: Inhibition of Ku-DNA binding IC50", "result": 3000, "unit": "nM"},
      {"measurement": "remaining activity at 8 µM", "setting": "Ku complex; read-out: % binding at 8 µM (100% = 0.5% DMSO)", "result": 5, "unit": "%"},
      {"measurement": "relative growth assessed by ATPlite kit compared to the control sample treated with 0.5% DMSO", "setting": "HeLa", "result": 1.22},
      {"measurement": "cell cycle effect", "setting": "HCT116 cells [3]", "result": "cell cycle arrest in S-phase"},
      {"measurement": "sensitivity of cells (growth)", "setting": "SKOV3; SKOV3, 0.5 µM", "result": "sensitive"},
      {"measurement": "sensitivity of SKOV3 relative to A2780", "setting": "SKOV3; from growth curves (Figure 9)", "result": 10, "unit": "times"},
      {"measurement": "total level of DNA-PKcs", "setting": "DNA-PKcs; then bleomycin for 4 hrs", "result": "not altered"},
      {"measurement": "phosphorylation of DNA-PKcs (S2056)", "setting": "DNA-PKcs; then bleomycin up to 30 µg/ml for 4 hrs", "result": "blocked the phosphorylation"},
      {"measurement": "relative growth assessed by ATPlite kit compared to the control sample treated with 0.5% DMSO", "setting": "U2OS", "result": 0.81}
    ]}
  ]
}
